Values quoted from earlier work in patent publication US5175181A, “Imidazolyl/imidazolylalkyl-N-terminal amino hydroxy” (G. D. Searle & Co., priority 1991, dated 1992).
Square brackets hold non-standard residues; d marks the D form. Peptide text beside a SMILES is read from it. * marks the point of attachment. Sta = CC(C)C[C@H](N)[C@@H](O)CC(=O)O; Isovaleryl = CC(C)CC(=O)*

Columns and labels:
hog renin = conditions: after injection of hog renin into nephrectomized rats; Gross et al, Science 1971
[1] = system: aspartyl proteases such as pepsin, cathepsin D and renin; conditions: Umezawa et al, J. Antibiot. 1970

For CC(C)CC(=O)N[C@H](C(=O)N[C@H](C(=O)N[C@@H](CC(C)C)[C@@H](O)CC(=O)N[C@@H](C)C(=O)N[C@@H](CC(C)C)[C@@H](O)CC(=O)O)C(C)C)C(C)C [pepstatin] (Isovaleryl-VV[Sta]A[Sta]-OH), the “blood pressure in vivo” value (hog renin) is listed as “reduce blood pressure” and the “inhibition of aspartyl proteases” value [1] is listed as “inhibitor of aspartyl proteases”.
